Data as given in US4933330A, “Benzoic acid derivatives and use thereof” (priority 1987, dated 1990).
Blank lines part the entries; values can stand above or below the compound they belong to.

How the values were obtained:
[1] = In vivo absorption of 4-ASA (serum and urine) in healthy volunteers; conditions: for Highest serum levels recalculated to treatment of the whole body, passive and active side: versus 4-ASA perorally in tuberculosis treatment
[2] = In vivo dermal absorption of 5-ASA (serum and urine) in healthy volunteers
Protocol: Serum concentrations and the amount excreted in urine of 5-ASA and the 5-ASA metabolite: […] The study was performed as an open study, divided into the following parts: Part I: 2 volunteers, normal skin, single dose. Part IA: 1 volunteer, stripped skin and 1 volunteer, normal skin and occlusion, single dose. Part IB: 1 volunteer, stripped skin and occlusion, single dose. Part II: 6 volunteers, stripped skin day 1, and occlusion day 1 and day 8, multiple doses. Part I, IA and IB: 0.5 g 5% 5-ASA cream was applied to one forearm of the volunteer and blood samples were taken at intervals for 6 hours from both arms. 24 hour urine samples were collected. […] Blood and urine were collected as described above on day 1 and 8. […] Clinical chemistry tests showing the state of the patient (blood status, liver and kidney function, etc.) were performed before and after the study.

[3] = tested on: psoriasis and contact dermatitis; assay: Conclusion of clinical testing (psoriasis and contact dermatitis); assay type: in vivo, patients; conditions: active formulations
Protocol: 1. Patients with wide-spread psoriasis receiving systemic treatment with methotrexate, retinoids or topical treatment with dithranol or tar-preparations. An area of 5×5 cm^2 was used for treatment with compositions 1, 2 and 3 in an increasing concentration. A total of 5 patients were treated on in-patient basis, and the results were evaluated 2-3 times a week.
2. In 3 out of 5 other patients treated with 5-ASA cream under occulsion with a thin plastic film a dramatic effect was seen after 4-6 days.
3. 5% 5-ASA cream and placebo cream was compared in a randomized, double-blind, bilaterial trial with 5 psoriatic in-patients. Two contralateral psoriasis plaques of the same severity were treated for one week with the 5-ASA cream and placebo cream, respectively, with the concomitant use of an occulsive dressing.
4. 5% 4-ASA cream and placebo cream were compared in a randomized, double blind, bilateral trial with 10 psoriasis out-patients. […]
Ten patients with known nickel allergy and 15 patients with known allergy to other compounds were tested with 5% 5-ASA cream and placebo cream in a randomized, double blind, bilateral trial. […] The study areas were occluded with Finn chambers for 48 hours, and the patients' symptoms were recorded. After 72 hours, the patch test reactions were evaluated and the patients' symptoms recorded.

[4] = tested on: allergy to other compounds; assay: Contact dermatitis/allergy test, patients with allergy to other compounds; assay type: in vivo; conditions: 5% 5-ASA cream vs placebo
Protocol: (§1) Ten patients with known nickel allergy and 15 patients with known allergy to other compounds were tested with 5% 5-ASA cream and placebo cream in a randomized, double blind, bilateral trial. The allergen was applied on two 1×1 cm^2 areas and the study creams were then applied on the left and right 2×2 cm^2 study areas, respectively. The study areas were occluded with Finn chambers for 48 hours, and the patients' symptoms were recorded. After 72 hours, the patch test reactions were evaluated and the patients' symptoms recorded.

[5] = In vitro dermal absorption in Franz Diffusion cells; assay type: in vitro ADME, human; conditions: for Absorbed amounts, 5-ASA versus prodrug No. 350 / Detection of unchanged prodrug after penetration of the skin / Production of 5-ASA in free form after absorption: human skin in vitro
Protocol: Franz Diffusion cells (FDC) are systems for the measurements of percutaneous absorption by the finite dose technique. Human skin is mounted in specially constructed diffusion chambers (FDC), and the skin is batched from below by a reservoir solution. 3×10 μl solution (1 mg/ml) of the following compounds were applied to human skin in Franz diffusion cells (0.636 cm^2) and kept at 37° C. by thermostatic control: Compound 1=5-ASA […] Samples were taken from the reservoir at intervals for 76 hours and analyzed by HPLC for 5-ASA and the prodrugs themselves.

psoriasis plaques = assay: Randomized, bilateral trial of 5% 5-ASA cream vs placebo, 48 psoriasis patients; assay type: in vivo
Protocol: Objective: To compare 5% 5-ASA cream with placebo cream in psoriasis patients.
5% 5-ASA cream and placebo cream were compared in a randomized, bilateral trial with 48 psoriasis patients (24 hospitalized and 24 out-patients). Two contralateral psoriasis plaques (5×5 cm^2 -10×10 cm^2) of the same severity were treated 3 times daily for two weeks (occulsion at night) with the 5-ASA and placebo creams, respectively.
Any reported adverse reactions were noted.
The differences between the "active side" (treated with 5-ASA) and the "placebo side" were statistically tested by a binomial distribution test.

nickel allergy = assay: Contact dermatitis/allergy test, patients with nickel allergy; assay type: in vivo; conditions: 5% 5-ASA cream vs placebo; after 72 hours
Protocol: as §1

rat = conditions: intravenously; cited from earlier work
[6] = chronic inflammatory bowel disease; cited from earlier work
[7] = human, serum, topical or ocular, 25 mg
[8] = human, in vivo, topical or ocular
[9] = % of dose through the skin during 76 hours, 3×10 μl of 1 mg/ml, 37° C.

SMILES: CC(=O)Nc1ccc(C(=O)O)c(O)c1 [Ac-4-ASA, N-acetyl-4-aminosalicylic acid]
- Highest serum levels recalculated to treatment of the whole body, passive and active side [1]: within the values reported after use of 4-ASA perorally in tuberculosis treatment
- Amount in urine ([1]; versus peroral administration): very small amounts in urine

- Recovery in urine ([2]; human, in vivo): Only Ac-5-ASA were recovered in urine
- Median serum concentration ([2]; human, in vivo, topical or ocular, 0.25 h): 13.5 ng/mL
- Median serum concentration ([2]; human, in vivo, topical or ocular, 0.5 h): 7.0 ng/mL
- Median serum concentration ([2]; human, in vivo, topical or ocular, 0.75 h): 10.3 ng/mL
- Median serum concentration ([2]; human, in vivo, topical or ocular, 1.5 h): 14.6 ng/mL
- Median serum concentration ([2]; human, in vivo, topical or ocular, 3 h): 8.2 ng/mL
SMILES: CC(=O)Nc1ccc(O)c(C(=O)O)c1 [Ac-5-ASA, 2-Hydroxy-5-acetamidobenzoic acid]
- Amount in urine versus peroral or rectal administration ([2]; human, in vivo): much lower in percentages than after peroral or rectal administration
- Maximum serum concentration recalculated to treatment of the whole body, active side ([2]; human, in vivo): 2-3 times the values reported in studies with SASP
- Maximum serum concentration recalculated to treatment of the whole body, passive side ([2]; human, in vivo): within the values reported in studies with salazosulphapyridine (SASP)

SMILES: Nc1ccc(C(=O)O)c(O)c1 [Example 4-ASA, 4-aminosalicylic acid]
- Efficacy vs placebo in comparative trials [3]: more efficient than placebo
- concentration at 0.25 h [1, 7]: 24 ng/mL
- concentration at 0.5 h [1, 7]: 43 ng/mL
- concentration at 1.5 h [1, 7]: 16 ng/mL
- Highest serum levels recalculated to treatment of the whole body, passive and active side [1]: within the values reported after use of 4-ASA perorally in tuberculosis treatment

SMILES: Nc1ccc(O)c(C(=O)O)c1 [Example 5-ASA, 5-aminosalicylic acid, reference compound]
- Preference of patients vs placebo [4]: about twice as many patients preferred the 5-ASA treatment in comparison with placebo
- Absorption through normal skin ([2]; 5% 5-ASA cream, normal skin): No absorption through normal skin was detected
- Absorption through occluded skin ([2]; 5% 5-ASA cream, occluded skin, late): Small amounts
- Absorption through both stripped and occluded skin ([2]; 5% 5-ASA cream, stripped and occluded skin): larger amounts
- Absorption through stripped skin ([2]; 5% 5-ASA cream, stripped skin, early): Small amounts
- Maximum serum concentration recalculated to treatment of the whole body, active side ([2]; human, in vivo): 2-3 times the values reported in studies with SASP
- Maximum serum concentration recalculated to treatment of the whole body, passive side ([2]; human, in vivo): within the values reported in studies with salazosulphapyridine (SASP)
- concentration at 0.25 h [2, 8]: 19.4 ng/mL
- concentration at 0.5 h [2, 8]: 8.3 ng/mL
- concentration at 0.75 h [2, 8]: 7.3 ng/mL
- concentration at 1 h [2, 8]: 8.2 ng/mL
- concentration at 1.5 h [2, 8]: 7.1 ng/mL
- concentration at 2 h [2, 8]: 3.9 ng/mL
- concentration at 4 h [2, 8]: 17.2 ng/mL
- concentration at 6 h [2, 8]: 22.9 ng/mL
- % absorbed, compound measured: 5-ASA [5, 9]: 7.8-15.6%
- Absorbed amounts, 5-ASA versus prodrug No. 350 [5]: of the same size
- Efficacy vs placebo in comparative trials [3]: more efficient than placebo
- Effect compared to placebo (conclusion) (psoriasis plaques): A significant effect
- Patients showing no difference regarding pruritus (nickel allergy): two
- Patients with preference to 5-ASA regarding pruritus (nickel allergy): Seven out of 10
- Patients with preference to 5-ASA side, investigator's opinion and patch tests (nickel allergy): 9 out of 10
- Nephrotoxic dose (rat): 300 to 900 mg/kg

- % absorbed, compound measured: 5-ASA [5, 9]: 18.2-24.0%
- % absorbed, compound measured: prodrug itself [5, 9]: 36.1-45.4%
- Enhanced absorption, % of the dose ([5]; as much as, 76 hours): ≤ 70 % of the dose
SMILES: CCOC(=O)c1cc(N)ccc1O [Prodrug No. 345, Ethyl 2-hydroxy-5-aminobenzoate]
- Detection of unchanged prodrug after penetration of the skin [5]: detected unchanged after penetration of the skin
- Production of 5-ASA in free form after absorption [5]: could produce 5-ASA in free form after absorption through human skin in vitro

SMILES: CCOC(=O)c1cc(N)ccc1OC(C)=O [Prodrug No. 350, Ethyl 2-acetoxy-5-aminobenzoate]
- % absorbed, compound measured: 5-ASA [5, 9]: 11.9-16.8%
- Absorbed amounts, 5-ASA versus prodrug No. 350 [5]: of the same size
- Detection of unchanged prodrug after penetration of the skin [5]: could not be detected unchanged
- Production of 5-ASA in free form after absorption [5]: could produce 5-ASA in free form after absorption through human skin in vitro

SMILES: Nc1ccc(S(=O)(=O)Nc2ccccn2)cc1 [Sulphapyridine]
- Side effects after treatment with salazosulphapyridine [6]: responsible for the side effects reported after treatment with salazosulphapyridine
